The record followed here is the supplement of paper PMC10307832.

Holding throughout (test): relative viability (nuclei count vs DMSO), 5 days (fraction); higher = more cells survive
Compound in assay [1]: CCN1CCC(CC1)N2C=C(N=N2)CNC3=CC4=C(C(=CN=C4C(=C3)Cl)C#N)NC5=CC(=C(C=C5)F)Cl [KIN001-266] + CC(=O)Nc1cccc(-n2c(=O)n(C3CC3)c(=O)c3c(Nc4ccc(I)cc4F)n(C)c(=O)c(C)c32)c1 [Trametinib] (partner 0.02 µM)
The method in brief: (§1)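 Cells from lung cancer lines were seeded into 1536-well plates and, one day later, dosed by pin tool. Treatments were either a single drug or a fixed dose of an anchor drug with five library-drug doses (not always all listed) in √10 steps. After 5 days, nuclei were stained in a one-step fixation (final 0.05% Triton X-100, 1% formaldehyde, 1 ug/ml Hoechst) and counted on 4× images, and relative viability is the treated-to-vehicle nuclei ratio, as the median of duplicate plates.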

Compound in assay [2]: CCN1CCC(CC1)N2C=C(N=N2)CNC3=CC4=C(C(=CN=C4C(=C3)Cl)C#N)NC5=CC(=C(C=C5)F)Cl [KIN001-266] + CC1(C)CCC(c2ccc(Cl)cc2)=C(CN2CCN(c3ccc(C(=O)NS(=O)(=O)c4ccc(N[C@H](CCN5CCOCC5)CSc5ccccc5)c(S(=O)(=O)C(F)(F)F)c4)cc3)CC2)C1 [Navitoclax] (partner 0.5 µM)
The essentials: as §1

Compound in assay [3]: CCN1CCC(CC1)N2C=C(N=N2)CNC3=CC4=C(C(=CN=C4C(=C3)Cl)C#N)NC5=CC(=C(C=C5)F)Cl [KIN001-266] + Nc1nc2[nH]cc(CCc3ccc(C(=O)N[C@@H](CCC(=O)O)C(=O)O)cc3)c2c(=O)[nH]1 [Pemetrexed] (partner 0.2 µM)
The method in brief:
as §1

Compound in assay [4]: CCN1CCC(CC1)N2C=C(N=N2)CNC3=CC4=C(C(=CN=C4C(=C3)Cl)C#N)NC5=CC(=C(C=C5)F)Cl [KIN001-266] + N=C(N)NC(=N)NCCc1ccccc1 [Phenformin] (partner 250 µM)
The method in brief: as §1

Take HCC-15: the relative viability is 0.413 in assay [1] (first compound 0.08 µM); 0.392 in assay [1] (first compound 0.253 µM); 0.388 in assay [1] (first compound 0.8 µM); 0.344 in assay [1] (first compound 2.53 µM); 0.328 in assay [1] (first compound 8 µM); 0.722 in assay [2] (first compound 0.08 µM). Also, the relative viability in assay [2] (first compound 0.253 µM) came to 0.676; in assay [2] (first compound 0.8 µM), 0.624; in assay [2] (first compound 2.53 µM), 0.553; in assay [2] (first compound 8 µM), 0.411; in assay [3] (first compound 0.08 µM), 0.234; in assay [3] (first compound 0.253 µM) it was 0.222. The relative viability in assay [3] (first compound 0.8 µM) is 0.221; in assay [3] (first compound 2.53 µM), 0.206; in assay [3] (first compound 8 µM), 0.225; in assay [4] (first compound 0.08 µM) it was 0.48; in assay [4] (first compound 0.253 µM) it was 0.472; in assay [4] (first compound 0.8 µM) it was 0.421. Further, the relative viability in assay [4] (first compound 2.53 µM) worked out at 0.43; in assay [4] (first compound 8 µM), 0.34.

For the cell line NCI-H2170, the relative viability in assay [1] (first compound 0.08 µM) stood at 0.969; in assay [1] (first compound 0.253 µM), 0.872; in assay [1] (first compound 0.8 µM), 0.96; in assay [1] (first compound 2.53 µM), 0.934; in assay [1] (first compound 8 µM) it was 0.822; in assay [2] (first compound 0.08 µM), 0.598. Further, the relative viability in assay [2] (first compound 0.253 µM) stood at 0.549; in assay [2] (first compound 0.8 µM), 0.623; in assay [2] (first compound 2.53 µM), 0.647; in assay [2] (first compound 8 µM) it was 0.605; in assay [3] (first compound 0.08 µM), 0.256; in assay [3] (first compound 0.253 µM), 0.256. The relative viability in assay [3] (first compound 0.8 µM) is 0.248; in assay [3] (first compound 2.53 µM) it was 0.248; in assay [3] (first compound 8 µM) it was 0.25; in assay [4] (first compound 0.08 µM), 0.38; in assay [4] (first compound 0.253 µM), 0.383; in assay [4] (first compound 0.8 µM), 0.377. Also, the relative viability in assay [4] (first compound 2.53 µM) came out at 0.358; in assay [4] (first compound 8 µM) it was 0.334.

As to PC-3 [JPC-3], the relative viability in assay [1] (first compound 0.08 µM) came out at 0.785; in assay [1] (first compound 0.253 µM), 0.739; in assay [1] (first compound 0.8 µM), 0.554; in assay [1] (first compound 2.53 µM), 0.741; in assay [1] (first compound 8 µM), 0.607; in assay [2] (first compound 0.08 µM), 0.813. Besides, the relative viability in assay [2] (first compound 0.253 µM) was 0.869; in assay [2] (first compound 0.8 µM), 0.759; in assay [2] (first compound 2.53 µM) it was 0.738; in assay [2] (first compound 8 µM), 0.803; in assay [3] (first compound 0.08 µM), 1.08; in assay [3] (first compound 0.253 µM), 1.09. Besides, the relative viability worked out at 1.14 in assay [3] (first compound 0.8 µM); 1.1 in assay [3] (first compound 2.53 µM); 0.965 in assay [3] (first compound 8 µM); 0.466 in assay [4] (first compound 0.08 µM); 0.496 in assay [4] (first compound 0.253 µM); 0.48 in assay [4] (first compound 0.8 µM). Moreover, the relative viability was 0.475 in assay [4] (first compound 2.53 µM) and 0.477 in assay [4] (first compound 8 µM).

For the cell line NCI-H1993, the relative viability worked out at 0.559 in assay [1] (first compound 0.08 µM); 0.52 in assay [1] (first compound 0.253 µM); 0.478 in assay [1] (first compound 0.8 µM); 0.475 in assay [1] (first compound 2.53 µM); 0.522 in assay [1] (first compound 8 µM); 1.15 in assay [2] (first compound 0.08 µM). Besides, the relative viability in assay [2] (first compound 0.253 µM) was 0.96; in assay [2] (first compound 0.8 µM) it was 0.855; in assay [2] (first compound 2.53 µM), 0.731; in assay [2] (first compound 8 µM), 0.681; in assay [3] (first compound 0.08 µM), 0.562; in assay [3] (first compound 0.253 µM) it was 0.554. Also, the relative viability in assay [3] (first compound 0.8 µM) was found to be 0.637; in assay [3] (first compound 2.53 µM), 0.586; in assay [3] (first compound 8 µM) it was 0.596; in assay [4] (first compound 0.08 µM), 0.505; in assay [4] (first compound 0.253 µM), 0.493; in assay [4] (first compound 0.8 µM), 0.506. In addition, the results for the relative viability in assay [4] (first compound 2.53 µM) and in assay [4] (first compound 8 µM) were 0.49 and 0.575, respectively.
